Tested on: T4-2 cells
Test: Reversion assay in 3D rBM cultures with Northern blot of AZU-1 message
Format: cell-based, human
Details: 3D rBM culture; AIIB2 100 μg/ml ascites protein, Tyrphostin AG 1478 100 nM
Excerpt: To test this, total RNA was extracted from 3D rBM cultures of S1 cells and T4-2 cells treated with or without inhibitors of either β1 integrin (mAb AIIB2) or EGFR (Tyrphostin). Results are seen in FIG. 18. […] By virtue of its connections with β1 integrin and EGFR, AZU-1 may provide essential cellular information that dictates cellular structure and phenotype.
Total RNA was extracted from cells cultured as monolayers or in 3D rBM or cells from normal tissues or in situ carcinoma with TRIzol reagent (Life Technologies, Inc. Grand Island, N.Y.). For Northern blots, total RNA (20 μg/lane) was resolved on denaturing agarose gels and transferred to Hybond-N^+ membranes (Amersham). Resulting blots were hybridized with ^32P-labeled cDNA probes and analyzed by autoradiography. A GAPDH probe was used to normalize variations in loading.
The β1-integrin function-blocking mAb AIIB2 (C. Damsky, UCSF) was introduced into the cell-embedded substratum at a concentration of 100 μg/ml ascites protein (which corresponds to 4-10 μg/ml purified rat IgG1) at the time of Matrigel gelation. Tyrphostin AG 1478 (Calbiochem) dissolved in dimethyl sulfoxide was added to the medium at a concentration of 100 nM on alternate days. Control cultures were treated with […] and vehicle only for AIIB2 antibody and inhibitor experiments, respectively.

COc1cc2ncnc(Nc3cccc(Cl)c3)c2cc1OC [Tyrphostin, Tyrphostin AG 1478]
AZU-1 message levels in treated T4-2 cells (Northern blot): restored to S1-like levels | phenotype of treated T4-2 cells in 3D rBM: phenotypically reverted

— patent US6753154B1, “Human AZU-1 gene, variants thereof and expressed gene products” (The Regents of the University of California, priority 1998, dated 2004)
